Laboratory results as given in US4665087A, “1-(carbamyl, thiocarbamyl, and iminocarbamyl)-indoline derivatives” (Ciba-Geigy Corporation, priority 1985, dated 1987).
Counter-ions that a name gives are not always drawn.

Columns and labels:
[1] = test system: angiotensin I pressor response; experiment: inhibition of the angiotensin I pressor response in anesthetized normotensive rats; assay type: in vivo; details: rat, 1.0 mg/kg i.v.
Protocol: The enzyme renin normally causes specific hydrolysis of the circulating protein renin substrate. This hydrolysis generates angiotensin I, which is further hydrolyzed by the action of said converting enzyme to the potent vasoconstrictor angiotensin II. The inhibition of said enzyme prevents the generation of angiotensin II from I and, therefore, attenuates any pressure response following an angiotensin I challenge.
The corresponding in vivo test is performed with male, normotensive rats, which are anesthetized with 100-120 mg/kg i.p. of sodium ethyl-(1-methylpropyl)-malonylthiourea. A femoral artery and saphenous vein are cannulated for direct blood pressure measurement and i.v. administration of angiotensin I and compounds of this invention. After the basal blood pressure is stabilized, pressor response is to 3 challenge of 0.33 μg/kg of angiotensin I i.v., in 5 minutes intervals, are obtained. Such pressure responses are again obtained 5, 10, 15, 30 and 60 minutes after either i.v., or p.o. administration (stomach tube) of the compounds to be tested, and compared with the initial responses. […]

[2] = biological target: T1, angiotensin-converting enzyme (Oryctolagus cuniculus, UniProt P12822); experiment: in vitro inhibition of the angiotensin-converting enzyme; assay type: biochemical, rabbit
T1 construct: freshly prepared from lungs of adult male rabbits; from tissue; host or cells: lungs of adult male rabbits
T1 sequence (P12822 34-1310): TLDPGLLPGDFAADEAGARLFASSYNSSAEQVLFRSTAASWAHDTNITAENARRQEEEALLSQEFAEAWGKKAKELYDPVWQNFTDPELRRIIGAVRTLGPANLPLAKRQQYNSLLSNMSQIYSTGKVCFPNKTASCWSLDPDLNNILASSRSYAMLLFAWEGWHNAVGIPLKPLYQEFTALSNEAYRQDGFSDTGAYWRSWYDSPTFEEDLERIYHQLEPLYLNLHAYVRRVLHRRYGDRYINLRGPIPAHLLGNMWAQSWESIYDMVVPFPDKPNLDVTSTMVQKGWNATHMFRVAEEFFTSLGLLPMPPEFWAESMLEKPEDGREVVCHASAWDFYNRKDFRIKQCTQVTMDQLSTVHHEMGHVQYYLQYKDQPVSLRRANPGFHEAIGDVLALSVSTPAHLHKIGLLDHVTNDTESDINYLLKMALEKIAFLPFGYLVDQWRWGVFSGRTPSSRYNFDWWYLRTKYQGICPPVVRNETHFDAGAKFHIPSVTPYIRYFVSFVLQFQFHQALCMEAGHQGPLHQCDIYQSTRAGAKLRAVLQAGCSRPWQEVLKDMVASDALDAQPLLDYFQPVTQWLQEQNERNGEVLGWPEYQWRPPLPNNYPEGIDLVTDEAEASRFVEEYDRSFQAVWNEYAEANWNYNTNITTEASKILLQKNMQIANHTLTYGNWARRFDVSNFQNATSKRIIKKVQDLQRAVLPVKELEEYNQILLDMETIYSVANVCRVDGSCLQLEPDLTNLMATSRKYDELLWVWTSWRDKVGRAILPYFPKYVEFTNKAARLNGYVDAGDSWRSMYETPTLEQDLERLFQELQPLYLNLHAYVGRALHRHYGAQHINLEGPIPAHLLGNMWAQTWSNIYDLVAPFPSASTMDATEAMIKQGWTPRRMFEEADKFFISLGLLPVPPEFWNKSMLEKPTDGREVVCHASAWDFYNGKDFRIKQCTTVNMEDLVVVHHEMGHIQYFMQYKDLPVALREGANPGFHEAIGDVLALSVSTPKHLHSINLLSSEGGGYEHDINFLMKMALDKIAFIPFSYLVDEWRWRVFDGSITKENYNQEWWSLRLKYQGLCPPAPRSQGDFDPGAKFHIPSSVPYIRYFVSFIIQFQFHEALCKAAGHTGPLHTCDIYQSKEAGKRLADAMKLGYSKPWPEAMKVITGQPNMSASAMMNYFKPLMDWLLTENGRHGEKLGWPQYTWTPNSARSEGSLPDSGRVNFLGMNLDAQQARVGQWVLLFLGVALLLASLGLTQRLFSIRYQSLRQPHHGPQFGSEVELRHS
Protocol: Biophys. Acta 293, 451 (1973). According to this method said compounds are dissolved at about 1 mM concentrations in phosphate buffer, externally cooled with ice. To these solutions various μl amounts of 1 mM of histidyl-leucine in phosphate buffer are added, followed by 100 μl of 4mM hippuryl-histidyl-leucine in phosphate buffer and 50 μl of the angiotensin-converting enzyme, which is freshly prepared from lungs of adult male rabbits in Tris buffer, containing potassium and magnesium chloride, as well as sucrose. The solutions are incubated at 37° C. for 30 minutes and combined with 0.75 ml or 0.6 N aqueous sodium hydroxide to stop further reaction. Then 100 μl of o-phthalaldehyde are added at room temperature, and 10 minutes later 100 μl of 6N hydrochloric acid. These samples are read against water in a spectrophotometer set at 360 nm, and the optical densities thereof estimated. They are corrected for the standard curve via a conversion factor expressing nanomoles of histidyl-leucine formed during the 30 minute incubation period. The results are plotted against drug concentration to determine the IC50, i.e., the drug concentration which gives half the activity of the control sample containing no drug. Again, representative members of the compounds of this invention are very effective in this in vitro test system, down to IC50 values as low as 5 nM (5×10^-9 M).

IC50 [2]: ~6 nM
SMILES: NCCCCN(C[C@@H](CCc1ccccc1)C(=O)O)C(=O)N1c2ccccc2C[C@H]1C(=O)O [Example 9, 1S-[(R)-N-(2-carboxy-4-phenylbutyl)-N-(4-aminobutyl)carbamoyl]-2,3-dihydroindole-2-carboxylic acid disodium salt]
inhibition of the angiotensin I induced hypertension [1]: virtually completely inhibits
